From patent publication US20030021763A1, “Method for the treatment and/or prophylaxis of diseases caused by IL-12” (Gruenenthal GmbH., priority 1999, published 2003)
“And” between values parts separate entries of the source, which are not always exact repeats. Identical values can stand only once.

Tested on: IL-12 production of LPS-activated monocytes
Experiment: Stimulation of human monocytes with lipopolysaccharide to secrete IL-12 (IL-12 sandwich ELISA of culture supernatants)
Assay type: cell-based
Details: for inhibition at 0.05 µg/mL / inhibition at 0.5 µg/mL / inhibition at 5 µg/mL: Homo sapiens, Monocyte, read-out: % inhibition of the IL-12 production of the control without inhibitors; for inhibition at 0.05 µg/mL / inhibition at 0.5 µg/mL / inhibition at 5 µg/mL / % inhibition of the IL-12 production of the control without inhibitors / IL-12 production: LPS 20 μg/ml, 24 hours; for action on the IL-12 production of LPS-stimulated monocytes: Tables 2 to 4
Description: Stimulation of Human Monocytes with Lipopolysaccharide to Secrete IL-12
Human monocytes were isolated from peripheral blood mononuclear cells (PBMC) which had been obtained from heparinized full blood by a Ficoll density gradient centrifugation. To that end, the PBMC were incubated with a monoclonal antibody directed against the monocyte-specific surface molecule CD14 and to which superparamagnetic microbeads (Miltenyi Biotech, Bergisch Gladbach) were coupled. For the positive selection of the labelled monocytes from the PBMC cell mixture, the total cell suspension was applied to a column having a ferromagnetic carrier matrix, and the column was placed in a magnetic field. The cells charged with microbeads were thus bonded to the carrier matrix, while unlabelled cells passed through the column and were discarded. After removing the matrix from the magnetic field, the antibody-charged cells were eluted by flushing the now demagnetised column with buffer. The purity of the resulting CD14-positive monocyte population was approximately from 95 to 98%. The monocytes were incubated for one hour at 37° C. and 5% CO2 in a density of 10^6cells/ml culture medium (RPMI, supplemented with 10% foetal calf serum) with the test substances dissolved in DMSO. 20 μg/ml of LPS from E. coli were then added. After 24 hours, cell-free culture supernatants were collected and tested for their IL-12 content.
The concentration of IL-12 in the cell culture supernatants was determined by sandwich ELISA's using two anti-IL-12 monoclonal antibodies (Biosource Europe, Fleurus, Belgium). A reference standard curve with human IL-12 was included. The detection limit of the IL-12 ELISA was 10 pg/ml.

[1] = test substance 0.05 μg/ml, IL-10 0 pg/ml
[2] = test substance 0.5 μg/ml, IL-10 0 pg/ml
[3] = test substance 5 μg/ml, IL-10 0 pg/ml
[4] = test substance 0.05 μg/ml combined with IL-10 5 pg/ml
[5] = test substance 0.05 μg/ml combined with IL-10 50 pg/ml
[6] = test substance 0.5 μg/ml combined with IL-10 5 pg/ml
[7] = test substance 0.5 μg/ml combined with IL-10 50 pg/ml
[8] = test substance 5 μg/ml combined with IL-10 5 pg/ml
[9] = test substance 5 μg/ml combined with IL-10 50 pg/ml
[10] = test substance 0.005 μg/ml combined with IL-10 5 pg/ml
[11] = test substance 0.005 μg/ml combined with IL-10 50 pg/ml
[12] = test substance 0.005 μg/ml, IL-10 0 pg/ml

Compound | inhibition at 0.05 µg/mL [1] | inhibition at 0.5 µg/mL [2] | inhibition at 5 µg/mL [3] | action on the IL-12 production of LPS-stimulated monocytes | % inhibition of the IL-12 production of the control without inhibitors [4] | IL-12 production [4] | % inhibition of the IL-12 production of the control without inhibitors [5] | IL-12 production [5] | IL-12 production [1] | % inhibition of the IL-12 production of the control without inhibitors [6] | IL-12 production [6] | % inhibition of the IL-12 production of the control without inhibitors [7] | IL-12 production [7] | IL-12 production [2] | % inhibition of the IL-12 production of the control without inhibitors [8] | IL-12 production [8] | % inhibition of the IL-12 production of the control without inhibitors [9] | IL-12 production [9] | IL-12 production [3] | other results
O=C1CCC(N2Cc3ccccc3C2=O)C(=O)N1 (centres unmarked) [EM 12, 3-(1-oxo-1,3-dihydro-isoindol-2-yl)-piperidine-2,6-dione] | 47% | 68% | 66% | dose-dependent inhibitory action | 55% | 2944 pg/mL | 91% | 589 pg/mL | 3478 pg/mL | 78% | 1462 pg/mL | 90% | 649 pg/mL | 2098 pg/mL | 81% | 1271 pg/mL | 92% | 546 pg/mL | 2220 pg/mL | 
CC1(N2C(=O)c3ccccc3C2=O)CCC(=O)NC1=O (stereo not drawn) [EM 978, α-methyl thalidomide] |  |  |  | dose-dependent inhibitory action | 61% | 1897 pg/mL | 68% | 1555 pg/mL | 3161 pg/mL | 94% | 272 pg/mL | 96% | 191 pg/mL | 439 pg/mL |  |  |  |  |  | % inhibition of the IL-12 production of the control without inhibitors [10]: 40%; IL-12 production [10]: 2922 pg/mL; % inhibition of the IL-12 production of the control without inhibitors [11]: 53%; IL-12 production [11]: 2302 pg/mL; % inhibition of the IL-12 production of the control without inhibitors [12]: 7%; IL-12 production [12]: 4571 pg/mL; % inhibition of the IL-12 production of the control without inhibitors [1]: 35%; % inhibition of the IL-12 production of the control without inhibitors [2]: 91%; concentration lower than in the case of thalidomide or EM 12 to achieve the same effects (versus thalidomide or EM 12): 10 times lower
O=C1CCC(N2C(=O)c3ccccc3C2=O)C(=O)N1 (centres unmarked) [Thalidomide, 2-(2,6-dioxo-piperidin-3-yl)-isoindole-1,3-dione, reference compound] | 45% | 67% | 76% | dose-dependent inhibitory action | 68% | 1958 pg/mL | 87% | 809 pg/mL | 3369 pg/mL | 81% | 1147 pg/mL | 90% | 618 pg/mL | 2037 pg/mL | 83% | 1057 pg/mL | 93% | 447 pg/mL | 1481 pg/mL | 
IL-10: anti-inflammatory cytokine originally described as cytokine synthesis inhibitory factor |  |  |  | dose-dependent inhibitory action |  |  |  |  |  |  |  |  |  |  |  |  |  |  |  | EC50: 0.05 ng/mL; IL-12 production (IL-10 5 pg/ml alone (thalidomide compound 0 μg/ml)): 5637 pg/mL and 4393 pg/mL and 4581 pg/mL; % inhibition of the IL-12 production of the control without inhibitors (IL-10 50 pg/ml alone (thalidomide compound 0 μg/ml)): 58% and 47% and 81%
